A word on the pIC50: it is the IC50 on a negative log10 scale, so that one unit is a factor of ten.

Series [1] deals with Plasmodium falciparum. In words: Antiplasmodial activity against Plasmodium falciparum K1 assessed as reduction in [3H]-hypoxanthine after 42 hrs by microculture radioisotope technique. It is filed as functional, organism-based.
Series [2] deals with Vero. In words: Cytotoxicity against African green monkey Vero cells by green fluorescent protein-based assay. Format: cell-based. Conditions: Chlorocebus sabaeus.
The test system of series [3] is MCF7. In words: Cytotoxicity against human MCF7 cells by resazurin microplate assay. Format: functional, cell-based.
A short description of series [4]: Selectivity index, ratio of IC50 for African green monkey Vero cells to IC50 for Plasmodium falciparum K1. It is filed as toxicity. Conditions: read-out: Ratio IC50.
Series [5] deals with NCI-H187. In words: Cytotoxicity against human NCI-H187 cells by resazurin microplate assay. It is filed as functional, cell-based. In general terms: Resazurin is reduced to fluorescent resorufin, in cell work by metabolically active cells.

Molecules are shown by their SMILES. pIC50: −log10 of the molar value.

Regarding `O[C@@H](c1cc(C(F)(F)F)nc2c(C(F)(F)F)cccc12)[C@H]1CCCCN1`, the pIC50 in series [1] is 7.28.
As to `C=CC(C)(C)O[C@H]1COc2ccc(/C=C/[C@H](OC)[C@@H](C)/C(=C\OC)C(=O)OC)cc2OC1(C)C`, the pIC50 in series [2] is 4.61; in series [3] it was below 3.98; in series [1] it was 6.62; in series [5] it was 6.02. The selectivity ratio in series [4] worked out at 102.
For `C[C@]1([C@@H]2Cc3cc(C(N)=O)cc(Cl)c3O2)CCC(=O)O1`, the negative logarithm of the IC50 (pIC50) in series [2] is below 3.77; in series [3] it was below 3.77; in series [1], below 4.47; in series [5] it was below 3.77.
In the case of `CC(=O)OCC/C(C)=C\[C@H](O)[C@H](O)c1ccccc1`, the negative-log IC50 (pIC50) in series [2] is below 3.72; in series [3], below 3.72; in series [1], below 4.42; in series [5], below 3.72.
Consider `C/C(=C\c1ccccc1)[C@@H](O)C(C)(C)C(=O)O`, for which the pIC50 is below 3.67 in series [2], below 3.67 in series [3], below 4.37 in series [1] and below 3.67 in series [5].
With `COC(=O)c1cc(-c2ccccc2)cc(OC)c1C`, the pIC50 in series [2] is 4.13; in series [3] it was below 3.71; in series [1], below 4.41; in series [5], 3.73.
In the case of `CO/C=C(/C(=O)OC)[C@H](C)[C@H](/C=C/c1cccc(OC)c1)OC`, the pIC50 in series [2] is 3.95; in series [3], below 3.81; in series [1] it was 4.99; in series [5], 4.01. Moreover, the selectivity ratio in series [4] came out at 10.9.
Take `CO\C=C(C(=O)OC)/C(C)=C\C=C\c1ccc2c(c1)OC(C)(C)[C@@H](OCC=C(C)C)CO2`: the pIC50 in series [2] was below 3.95; in series [3], 4.61; in series [1], 6.08; in series [5] it was 5.31. Besides, the selectivity ratio in series [4] is above 135.
For `COC(=O)/C(CO)=C(/C)[C@H](/C=C/c1ccc(Cl)c(OC)c1)OC`, the pIC50 is 3.91 in series [2], below 3.83 in series [3], below 4.54 in series [1] and 3.85 in series [5].
For `C=CC(C)(C)O[C@H]1COc2cc(C(=O)OC)c(C)c(OC)c2OC1(C)C` the same measures were 4.36, below 3.95, 5.08 and 4.26.
As to `CO/C=C(/C(=O)OC)[C@H](C)[C@@H](O)/C=C/c1ccccc1`, the pIC50 is below 3.74 in series [2], below 4.44 in series [1] and 3.80 in series [5].
For `CO/C=C(/C(=O)OC)C(C)C(=O)/C=C/c1ccccc1` (centres undefined), the pIC50 in series [2] is below 3.74; in series [3], below 3.74; in series [1] it was below 4.44; in series [5] it was 4.22.
In the case of `C/C(=C\c1ccccc1)[C@@H](O)C(C)(C)O`, the pIC50 in series [2] is below 3.62; in series [3], below 3.62; in series [1] it was below 4.32; in series [5], below 3.62.
Consider `CO/C=C(/C(=O)OC)[C@H](C)[C@H](/C=C/c1ccc2c(c1)OC(C)(C)[C@@H](OCC=C(C)C)CO2)OC`, for which the pIC50 is 4.55 in series [2], below 3.98 in series [3], 6.32 in series [1] and 5.66 in series [5]. Moreover, in series [4], the selectivity ratio was determined as 58.8.
For `CO\C=C(C(=O)OC)/C(C)=C(\C=C\c1ccc2c(c1)O[C@@]1(CO2)O[C@H](C=C(C)C)OC1(C)C)OC` the same measures were below 3.99, below 3.99, 6.85, 5.48 and above 736.
For the molecule `COC(=O)/C(CO)=C(/C)[C@H](/C=C/c1ccccc1)OC`, the pIC50 in series [2] is below 3.74; in series [3], below 3.74; in series [1] it was below 4.44; in series [5] it was below 3.74.
Consider `COC(=O)c1cc(-c2ccc3c(c2)O[C@@]2(CO3)O[C@H](C=C(C)C)OC2(C)C)cc(OC)c1C`, for which the pIC50 was 4.87 in series [2], below 4.66 in series [1] and 4.27 in series [5].
Take `CO/C=C(/C(=O)OC)[C@H](C)[C@H](/C=C/c1ccc2c(c1)OC(C)(C)[C@@H](O)CO2)OC`: the pIC50 in series [2] was below 3.91; in series [3], below 3.91; in series [1], 4.65; in series [5], 4.24. Besides, the selectivity ratio in series [4] is above 5.2.
`COC(=O)/C(COC(=O)Cc1ccccc1)=C(/C)[C@H](/C=C/c1ccc(Cl)c(OC)c1)OC`: the pIC50 in series [2] was 4.26; in series [3], below 3.96; in series [1], below 4.66; in series [5], 4.42.
For `C/C(=C/[C@H](O)[C@H](O)c1ccccc1)CCO`, the pIC50 in series [2] is below 3.65; in series [3] it was below 3.65; in series [1], below 4.35; in series [5] it was below 3.65.
In the case of `CO/C=C(/C(=O)OC)C(C)C(=O)/C=C/c1ccc2c(c1)OC(C)(C)[C@@H](OCC=C(C)C)CO2` (some centres undefined), the pIC50 in series [2] was 4.17; in series [3], below 3.96; in series [1], 5.38; in series [5], 5.03. Further, the selectivity ratio in series [4] is 16.3.
For `C=CC(C)(C)O[C@H]1COc2ccc(/C=C/C(OC)=C(C)\C(=C/OC)C(=O)OC)cc2OC1(C)C` the same measures were 4.01, 4.36, 7.05, 6.82 and 1100.
For `CO/C=C(/C(=O)OC)C(C)C(=O)/C=C/c1ccc2c(c1)O[C@@]1(CO2)O[C@H](C=C(C)C)OC1(C)C` (mixture of isomers) the same measures were 4.74, 4.63, 4.97, 5.24 and 1.7.
As to `C[C@H]1[C@@H](O)O[C@@H]2O[C@@]3(C)CC[C@H]4[C@H](C)CC[C@@H]1[C@@]24OO3` [ARTENIMOL], in series [1], the pIC50 was 8.51.
Take `Cc1c2ccncc2c(C)c2c1[nH]c1ccccc12` [ELLIPTECINE]: the pIC50 is 5.13 in series [2] and 5.03 in series [5].

The values above are taken from ChEMBL document CHEMBL4610091, “Antimalarial 9-Methoxystrobilurins, Oudemansins, and Related Polyketides from Cultures of Basidiomycete Favolaschia Species” (J Nat Prod, 2020).
